Laboratory results: patent publication US11985932B2 (priority 2019, dated 2024)

Assays:
[1] = test system: rice blast fungus (Magnaporthe grisea strain K-06); type: in vivo; details: for hyphal elongation of rice blast fungus in the leaf sheath / blast resistance: progeny (third generation; R2) of treated lines, 150 μM (salicylic acid 1 mM), vs Nipponbare, FIG. 11B; for hyphal elongation of Magnaporthe oryzae in the leaf sheath / disease resistance: regenerated rice individuals, callus treated at 150 μM (salicylic acid 1 mM), P<0.05, FIG. 11A
WRKY45 gene = experiment: RNA-seq of probenazole-treated rice callus (WRKY45 induction); type: cell-based, Oryza sativa cv. Nipponbare; details: 7th day after probenazole treatment (50, 100 or 150 μM) on dedifferentiation-inducing medium
[2] = test system: Pseudomonas syringae pv. tabaci; experiment: Pseudomonas syringae pv. tabaci inoculation of Nicotiana benthamiana leaves, CFU; type: in vivo; details: R0 plant of Nicotiana benthamiana of callus treated with probenazole
Botrytis cinerea [3] = experiment: Botrytis cinerea inoculation of Nicotiana benthamiana leaves, lesion area; type: in vivo
Botrytis cinerea [4] = experiment: Botrytis cinerea inoculation of tomato leaves, lesion area; type: in vivo; details: regenerated tomato (Micro-Tom) lines, callus treated with 200 μM probenazole; vs WT
rice callus = experiment: Callus survival and redifferentiation under probenazole treatment

SMILES | hyphal elongation of rice blast fungus in the leaf sheath / blast resistance [1] | hyphal elongation of Magnaporthe oryzae in the leaf sheath / disease resistance [1] | expression of the WRKY45 gene in callus (WRKY45 gene) | growth of Pseudomonas syringae pv. tabaci [2] | Botrytis cinerea resistance (Botrytis cinerea [3]; R1, self-fertilized progeny of R0, Nicotiana benthamiana) | expansion of lesions of Botrytis cinerea (Botrytis cinerea [3]; current generation (R0) of regenerated Nicotiana benthamiana, callus treated with 200 μM probenazole 7 to 21 days, vs wild type) | lesion expansion of Botrytis cinerea in tomato leaves (Botrytis cinerea [4]) | number of meristems formed in callus and appearance rate of regenerated plants (rice callus; compared to control not treated with probenazole) | redifferentiation from callus (rice callus; probenazole treatment in dedifferentiation or redifferentiation process) | callus survival rate (rice callus; probenazole-treated rice callus vs control callus)
CSC(=O)c1cccc2nnsc12 [acibenzolar S-methyl] | significant blast resistance | significant disease resistance |  |  |  |  |  |  |  | 
N#Cc1ccccc1NC(=O)c1snc(Cl)c1Cl [isothianil, isotianil] | significant blast resistance | significant disease resistance |  |  |  |  |  |  |  | 
C=CCOC1=NS(=O)(=O)c2ccccc21 [probenazole, 3-prop-2-enoxy-1,2-benzothiazole 1,1-dioxide] | significant blast resistance | significant disease resistance | induced | markedly suppressed | Significant Botrytis cinerea resistance | significantly suppressed | significantly suppressed | no significant difference | not inhibited | 100%
O=C(O)c1ccccc1O [salicylic acid] | significant blast resistance | significant disease resistance |  |  |  |  |  |  |  | 
Cc1ccc(NC(=O)c2snnc2C)cc1Cl [tiadinil] | significant blast resistance | significant disease resistance |  |  |  |  |  |  |  | 
